{
  "source": "ChEMBL document CHEMBL1201862",
  "about": "“PubChem BioAssay data set” (2004)",
  "key": {"[1]": {"biological_target": "T1, Ubiquitin-conjugating enzyme E2 N (Homo sapiens, UniProt P61088)", "T1 sequence (P61088 whole entry)": "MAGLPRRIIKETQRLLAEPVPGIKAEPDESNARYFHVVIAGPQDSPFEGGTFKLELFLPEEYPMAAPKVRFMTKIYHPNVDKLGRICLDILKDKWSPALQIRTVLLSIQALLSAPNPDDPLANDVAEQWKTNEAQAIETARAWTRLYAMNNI", "assay_type": "functional"}, "[2]": {"experiment": "intracellular Trypanosoma cruzi inhibitors in host cells – cell-based, plate reader, cherry-pick samples, set 3, dose response (AID 651818);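 note: compounds incubated with infected cells for about four days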", "assay_type": "functional"}, "Protein skinhead-1": {"biological_target": "T2, Protein skinhead-1 (Caenorhabditis elegans, UniProt P34707)", "T2 sequence (P34707 whole entry)": "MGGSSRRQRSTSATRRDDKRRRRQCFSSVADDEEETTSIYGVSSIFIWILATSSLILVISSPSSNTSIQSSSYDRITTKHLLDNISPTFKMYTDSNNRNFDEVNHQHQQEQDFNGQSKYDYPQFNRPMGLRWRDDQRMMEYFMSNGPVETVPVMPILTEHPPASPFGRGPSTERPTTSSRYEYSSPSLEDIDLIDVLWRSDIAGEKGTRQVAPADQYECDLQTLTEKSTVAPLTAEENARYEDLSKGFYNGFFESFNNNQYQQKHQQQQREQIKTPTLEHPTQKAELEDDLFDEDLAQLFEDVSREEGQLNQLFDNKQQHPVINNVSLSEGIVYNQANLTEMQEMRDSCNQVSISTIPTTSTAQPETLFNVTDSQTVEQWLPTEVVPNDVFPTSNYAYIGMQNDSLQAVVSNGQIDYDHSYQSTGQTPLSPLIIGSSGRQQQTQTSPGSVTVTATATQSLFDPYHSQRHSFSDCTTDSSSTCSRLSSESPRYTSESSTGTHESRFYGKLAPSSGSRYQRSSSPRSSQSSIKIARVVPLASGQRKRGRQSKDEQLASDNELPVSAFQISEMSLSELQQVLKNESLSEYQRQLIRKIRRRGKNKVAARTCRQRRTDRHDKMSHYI", "assay_type": "functional"}, "[3]": {"biological_target": "T3, Rac GTPase-activating protein 1 (Homo sapiens, UniProt Q9H0H5)", "T3 sequence (Q9H0H5 whole entry)": "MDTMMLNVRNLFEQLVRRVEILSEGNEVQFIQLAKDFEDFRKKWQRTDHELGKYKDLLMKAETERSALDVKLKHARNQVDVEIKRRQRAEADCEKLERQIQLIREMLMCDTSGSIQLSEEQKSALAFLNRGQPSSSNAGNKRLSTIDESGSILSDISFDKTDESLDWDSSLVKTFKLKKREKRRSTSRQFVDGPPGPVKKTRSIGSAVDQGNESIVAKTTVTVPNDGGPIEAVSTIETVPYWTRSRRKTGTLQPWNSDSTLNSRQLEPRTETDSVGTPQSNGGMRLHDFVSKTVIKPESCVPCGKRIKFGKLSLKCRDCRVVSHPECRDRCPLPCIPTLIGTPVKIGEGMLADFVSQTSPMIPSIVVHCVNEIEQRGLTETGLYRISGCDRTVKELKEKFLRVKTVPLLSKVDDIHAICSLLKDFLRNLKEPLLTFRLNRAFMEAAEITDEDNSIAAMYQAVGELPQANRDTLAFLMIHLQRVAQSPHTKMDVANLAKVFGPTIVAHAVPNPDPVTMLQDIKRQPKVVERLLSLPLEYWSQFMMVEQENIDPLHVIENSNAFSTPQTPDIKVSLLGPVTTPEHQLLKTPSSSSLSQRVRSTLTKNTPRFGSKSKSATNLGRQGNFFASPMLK", "experiment": "blockers of MgcRacGAP-driven Rac1 GTP hydrolysis – biochemical, ADP Hunter fluorescence, primary and confirmatory, confirmation (AID 624330)", "assay_type": "functional"}, "Large T antigen": {"biological_target": "Large T antigen (Simian virus 40, UniProt P03070)", "sequence (P03070 whole entry)": "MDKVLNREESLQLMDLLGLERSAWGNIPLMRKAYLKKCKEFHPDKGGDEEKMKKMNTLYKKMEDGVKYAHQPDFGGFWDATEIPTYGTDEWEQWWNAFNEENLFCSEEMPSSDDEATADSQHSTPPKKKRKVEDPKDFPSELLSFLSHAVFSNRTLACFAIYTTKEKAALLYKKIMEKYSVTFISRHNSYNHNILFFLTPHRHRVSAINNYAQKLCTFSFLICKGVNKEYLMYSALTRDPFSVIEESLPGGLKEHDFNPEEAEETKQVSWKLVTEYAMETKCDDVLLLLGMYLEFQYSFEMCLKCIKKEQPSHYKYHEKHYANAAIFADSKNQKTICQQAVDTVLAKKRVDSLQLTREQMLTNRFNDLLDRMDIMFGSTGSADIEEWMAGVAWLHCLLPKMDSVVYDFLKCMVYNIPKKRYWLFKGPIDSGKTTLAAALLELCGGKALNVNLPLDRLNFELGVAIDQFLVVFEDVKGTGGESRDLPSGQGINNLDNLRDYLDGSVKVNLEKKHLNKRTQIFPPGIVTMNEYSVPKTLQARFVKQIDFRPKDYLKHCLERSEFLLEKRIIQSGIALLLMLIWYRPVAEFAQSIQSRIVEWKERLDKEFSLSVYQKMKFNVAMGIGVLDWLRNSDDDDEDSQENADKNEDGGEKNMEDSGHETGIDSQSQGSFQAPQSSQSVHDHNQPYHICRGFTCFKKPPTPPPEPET", "assay_type": "functional, Betapolyomavirus macacae"}, "H4": {"tested_on": "H4", "experiment": "Luminescence Cell-Based Dose Response HTS to Identify Activators of 5'UTR Stem-Loop Driven Prion Protein mRNA Translation in H4 Neuroglioblastoma Cells. [Related pubchem assays: 1829 (Project Summary), 1814 (Primary HTS)]", "assay_type": "functional", "conditions": "Homo sapiens"}, "[4]": {"experiment": "Luminescence Cell-Based Dose Response HTS to Identify Activators of Luciferase Translation or Activity in H4 […] Cells. [Related pubchem assays: 1829 (Project Summary), 1814 (Primary HTS)]", "assay_type": "functional"}, "[5]": {"experiment": "Luminescence Cell-Based Dose Confirmation HTS to Identify Activators of 5'UTR Stem-Loop Driven Alpha-Synuclein mRNA Translation in H4 Neuroglioblastoma Cells. [Related pubchem assays: 1829 (Project Summary), 1814 (Primary HTS)]", "assay_type": "functional"}, "[6]": {"experiment": "NIH3T3 cell viability loss – ATP luminescence, mouse fibroblasts, counter-screen, dose response (AID 2010);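 note: cells exposed to compound for about 90 hours before reading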", "assay_type": "functional, cell-based"}, "[7]": {"experiment": "Trypanosoma cruzi growth suppression in host cells – NIH3T3 host cells, beta-gal luminescence, confirmation (AID 2044);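 note: luminescent beta-galactosidase reporter signal from transgenic T. cruzi replicating inside host cells; inhibitors lower the luminescence signal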", "assay_type": "functional, cell-based"}},
  "note": "Active and inactive are the calls of the source.",
  "data": [
    {"compound": "NC1=NC[C@H](c2ccccc2)N1CCc1cc(C(F)(F)F)cc(C(F)(F)F)c1", "values": [
      {"measurement": "IC50", "setting": "[1]", "result": "> 20 µM (inactive)"}
    ]},
    {"compound": "C[C@H]1CN([C@@H](C)CO)C(=O)c2cccc(NC(=O)CCCCCC(=O)Nc3ccccc3N)c2O[C@@H]1CN(C)Cc1ccc(-c2ccccc2)cc1", "values": [
      {"measurement": "AC50", "setting": "[2]", "result": "1.71 µM (active)"}
    ]},
    {"compound": "O=C(CCCCCN1C(=O)c2cccc3cccc(c23)C1=O)NCc1ccco1", "values": [
      {"measurement": "IC50", "setting": "[1]", "result": "> 20 µM (inactive)"}
    ]},
    {"compound": "CCCNC(=O)c1ccc2snnc2c1", "values": [
      {"measurement": "IC50", "setting": "Protein skinhead-1", "result": "> 100 µM (inactive)"}
    ]},
    {"compound": "COc1cc(/C=N\\NC(=O)C2CC3C=CC2C3)ccc1O", "note": "(stereo not given)", "values": [
      {"measurement": "IC50", "setting": "[3]", "result": "23.4 µM (active)"},
      {"measurement": "IC50", "setting": "Large T antigen", "result": "13.3 µM (active)"}
    ]},
    {"compound": "COc1ccccc1NC(=O)Oc1ccc(NC(=O)c2ccco2)cc1", "values": [
      {"measurement": "IC50", "setting": "Large T antigen", "result": "22.9 µM (active)"}
    ]},
    {"compound": "O=c1cc(N2CCN(c3ccc(F)cc3)CC2)[nH]c(=O)n1C1CCCCC1", "values": [
      {"measurement": "EC50", "setting": "H4", "result": "26.6 µM (active)"},
      {"measurement": "EC50", "setting": "[4]", "result": "17.3 µM (inconclusive)"},
      {"measurement": "EC50", "setting": "[5]", "result": "> 120 µM (not active)"}
    ]},
    {"compound": "COc1ccc(CN(C)C[C@@H]2Oc3c(NC(=O)Nc4ccc(C(F)(F)F)cc4)cccc3C(=O)N([C@H](C)CO)C[C@@H]2C)cc1", "values": [
      {"measurement": "AC50", "setting": "[2]", "result": "1.42 µM (active)"}
    ]},
    {"compound": "O=C(CCn1c(=S)[nH]c2ccccc2c1=O)NCCCN1CCCC1=O", "values": [
      {"measurement": "IC50", "setting": "Protein skinhead-1", "result": "> 100 µM (inactive)"}
    ]},
    {"compound": "Cc1ccc(N2C(=O)NC(=O)/C(=C/Nc3ccc(S(=O)(=O)N(C)C)cc3)C2=O)cc1", "values": [
      {"measurement": "IC50", "setting": "Protein skinhead-1", "result": "> 100 µM (inactive)"}
    ]},
    {"compound": "C[C@H](CO)N1C[C@H](C)[C@@H](CN(C)Cc2ccc(C(=O)Nc3ccccc3N)cc2)Oc2c(NS(=O)(=O)c3ccc(Cl)cc3)cccc2C1=O", "values": [
      {"measurement": "AC50", "setting": "[2]", "result": "1.41 µM (active)"}
    ]},
    {"compound": "O=c1nc2n(c(O)c1C(c1c(O)nc3n(c1=O)CCS3)c1cccc3ccccc13)CCS2", "note": "(stereo not given)", "values": [
      {"measurement": "IC50", "setting": "Large T antigen", "result": "> 100 µM (active)"}
    ]},
    {"compound": "c1ccc(-c2ccc(OCCCNC3CCCC3)cc2)cc1", "values": [
      {"measurement": "EC50", "setting": "[6]", "result": "> 60 µM (not active)"},
      {"measurement": "EC50", "setting": "[7]", "result": "1.03 µM (active)"},
      {"measurement": "IC50", "setting": "Protein skinhead-1", "result": "20.8 µM (active)"}
    ]},
    {"compound": "Cc1ccc(C(=O)Nc2nc(-c3ccc(F)cc3)cs2)o1", "values": [
      {"measurement": "IC50", "setting": "Protein skinhead-1", "result": "> 100 µM (inactive)"}
    ]},
    {"compound": "C[C@H]1CN([C@@H](C)CO)C(=O)Cc2cc(NC(=O)Nc3ccc(C(F)(F)F)cc3)ccc2O[C@H]1CN(C)Cc1ccc(C(=O)Nc2ccccc2N)cc1", "values": [
      {"measurement": "AC50", "setting": "[2]", "result": "2.13 µM (active)"}
    ]}
  ]
}
